Experimental data published in patent US10183015B2, “Heterocyclic compounds and methods of use” (Medivation Technologies LLC, priority 2015, dated 2019).

Tested on: HepG2 cells
Test: HepG2 cell viability under serum-free conditions (MTS)
Assay type: cell-based
Conditions: Homo sapiens, HepG2, 72 h, 3 days, DMEM without FBS, read-out: Average Viability (% Inhibition, n = 3)
Experimental: Cancer cells such as HepG2 cells depend on SREBP activation and de novo lipogenesis to survive, particularly in low serum or serum-free conditions. Using this model, compounds were screened over 24 hours for the ability to block cleavage of SREBP to its active form and over 72 hours for an effect on cell viability under serum-free conditions.
For viability measurements, HepG2 cells were seeded at 5,000 cells per well in 96-well plates in DMEM supplemented with 10% FBS. After 1 day in culture, cells were treated with compounds (20 μM & 5 μM) for 3 days in DMEM without FBS. Viability was measured by MTS […]. […]

Molecule `COc1cc(-c2csc(-c3ccnc(C(C)(C)C)c3)n2)ccc1NS(=O)(=O)C(F)(F)F` [Compound 59, N-(4-(2-(2-tert-butylpyridin-4-yl)thiazol-4-yl)-2-methoxyphenyl)-1,1,1-trifluoromethanesulfonamide] has a cytotoxicity at 20 µM of 99.8%.

Work on `O=S(=O)(Nc1ccc(-c2csc(-c3ccnc4[nH]ccc34)n2)c(Cl)c1)C(F)(F)F` [Compound 87, N-[3-chloro-4-(2-{1H-pyrrolo[2,3-b]pyridin-4-yl}-1,3-thiazol-4-yl)phenyl]-1,1,1-trifluoromethanesulfonamide] yielded a cytotoxicity at 5 µM of 9%.

For `O=S(=O)(Nc1ccc(-c2csc(-c3cccc(CO)c3)n2)c(Cl)c1)C(F)(F)F` [Compound 83, N-(3-chloro-4-{2-[3-(hydroxymethyl)phenyl]-1,3-thiazol-4-yl}phenyl)-1,1,1-trifluoromethanesulfonamide], the cytotoxicity at 5 µM was 0%.

Work on `O=S(=O)(Nc1ccc(-c2csc(-c3ccnc(Cl)c3)n2)c(Cl)c1)C(F)(F)F` [Compound 95, N-(3-chloro-4-(2-(2-chloropyridin-4-yl)thiazol-4-yl)phenyl)-1,1,1-trifluoromethanesulfonamide] yielded a cytotoxicity at 5 µM of 86%.

With `O=S(=O)(Nc1ccc(-c2csc(-c3ccc(C(F)(F)F)c(OCc4ccccc4)c3)n2)c(Cl)c1)C(F)(F)F` [Compound 73, N-(4-{2-[3-(benzyloxy)-4-(trifluoromethyl)phenyl]-1,3-thiazol-4-yl}-3-chlorophenyl)-1,1,1-trifluoromethanesulfonamide] the cytotoxicity at 5 µM was 99%.

In the case of `Cc1cnccc1-c1nc(-c2ccc(NS(=O)(=O)C(F)(F)F)cc2Cl)cs1` [Compound 86, N-{3-chloro-4-[2-(3-methylpyridin-4-yl)-1,3-thiazol-4-yl]phenyl}-1,1,1-trifluoromethanesulfonamide], the cytotoxicity at 5 µM is reported as 27%.

In the case of `O=C(c1ccc(-c2nc(-c3ccc(NS(=O)(=O)C(F)(F)F)cc3Cl)cs2)cc1)N1CCCCC1` [Compound 67, N-(3-chloro-4-{2-[4-(piperidine-1-carbonyl)phenyl]-1,3-thiazol-4-yl}phenyl)-1,1,1-trifluoromethanesulfonamide], the cytotoxicity at 20 µM is reported as 20%.

`O=S(=O)(Nc1ccc(-c2csc(-c3cccc(N4CCCCC4)c3)n2)c(Cl)c1)C(F)(F)F` [Compound 88, N-(3-chloro-4-{2-[3-(piperidin-1-yl)phenyl]-1,3-thiazol-4-yl}phenyl)-1,1,1-trifluoromethanesulfonamide] gave a cytotoxicity at 5 µM of 19%.

`O=S(=O)(Nc1ccc(-c2csc(-c3ccnc(CCC(F)(F)F)c3)n2)c(Cl)c1)C(F)(F)F` [Compound 64, N-(3-chloro-4-{2-[2-(3,3,3-trifluoropropyl)pyridin-4-yl]-1,3-thiazol-4-yl}phenyl)-1,1,1-trifluoromethanesulfonamide] showed a cytotoxicity at 20 µM of 100%.

`O=S(=O)(Nc1ccc(-c2csc(-c3ccc4c(c3)CCO4)n2)c(Cl)c1)C(F)(F)F` [Compound 82, N-{3-chloro-4-[2-(2,3-dihydro-1-benzofuran-5-yl)-1,3-thiazol-4-yl]phenyl}-1,1,1-trifluoromethanesulfonamide] was tested, and the cytotoxicity at 5 µM was 82%.

`O=S(=O)(Nc1ccc(-c2csc(-c3ccccc3CO)n2)c(Cl)c1)C(F)(F)F` [Compound 84, N-(3-chloro-4-{2-[2-(hydroxymethyl)phenyl]-1,3-thiazol-4-yl}phenyl)-1,1,1-trifluoromethanesulfonamide] showed a cytotoxicity at 5 µM of 18%.

Molecule `CCCc1cc(-c2nc(-c3ccc(NS(=O)(=O)C(F)(F)F)cc3Cl)cs2)ccn1` [Compound 4, N-(3-chloro-4-(2-(2-propylpyridin-4-yl)thiazol-4-yl)phenyl)-1,1,1-trifluoromethanesulfonamide] has a cytotoxicity at 20 µM of 94.4%.

In the case of `COc1cc(-c2csc(-c3ccnc(CC(C)C)c3)n2)ccc1NS(=O)(=O)C(F)(F)F` [Compound 57, 1,1,1-trifluoro-N-(2-methoxy-4-{2-[2-(2-methylpropyl)pyridin-4-yl]-1,3-thiazol-4-yl}phenyl) methanesulfonamide], the cytotoxicity at 20 µM is reported as 56.4%.

`Cc1ccc(S(=O)(=O)Nc2cccc(-c3nc(-c4ccc(NS(=O)(=O)C(F)(F)F)cc4Cl)cs3)c2)cc1` [Compound 78, N-{3-[4-(2-chloro-4-trifluoromethanesulfonamidophenyl)-1,3-thiazol-2-yl]phenyl}-4-methylbenzene-1-sulfonamide] was tested, and the cytotoxicity at 5 µM was 87%.

For `O=S(=O)(Nc1ccc(-c2csc(-c3cncc4ccccc34)n2)c(Cl)c1)C(F)(F)F` [Compound 75, N-{3-chloro-4-[2-(isoquinolin-4-yl)-1,3-thiazol-4-yl]phenyl}-1,1,1-trifluoromethanesulfonamide], the cytotoxicity at 5 µM was 88%.

With `O=S(=O)(Nc1ccc(-c2csc(-c3ccnc(N4CCCCC4)c3)n2)c(Cl)c1)C(F)(F)F` [Compound 85, N-(3-chloro-4-{2-[2-(piperidin-1-yl)pyridin-4-yl]-1,3-thiazol-4-yl}phenyl)-1,1,1-trifluoromethanesulfonamide] the cytotoxicity at 5 µM was 93%.

`CCCc1cc(-c2nc(-c3ccc(NS(=O)(=O)C(F)(F)F)cc3)cs2)ccn1` [Compound 1, 1,1,1-trifluoro-N-(4-(2-(2-propylpyridin-4-yl)thiazol-4-yl)phenyl)methanesulfonamide] showed a cytotoxicity at 20 µM of 92.1%.

In the case of `O=S(=O)(Nc1ccc(-c2csc(-c3cccc4ccccc34)n2)c(Cl)c1)C(F)(F)F` [Compound 71, N-{3-chloro-4-[2-(naphthalen-1-yl)-1,3-thiazol-4-yl]phenyl}-1,1,1-trifluoromethanesulfonamide], the cytotoxicity at 5 µM is reported as 97%.

Molecule `O=S(=O)(Nc1ccc(-c2csc(-c3c[nH]c4ccccc34)n2)c(Cl)c1)C(F)(F)F` [Compound 93, N-{3-chloro-4-[2-(1H-indol-3-yl)-1,3-thiazol-4-yl]phenyl}-1,1,1-trifluoromethanesulfonamide] has a cytotoxicity at 5 µM of 82%.

`COc1ccc(-c2nc(-c3ccc(NS(=O)(=O)C(F)(F)F)cc3Cl)cs2)cc1OC` [Compound 79, N-{3-chloro-4-[2-(3,4-dimethoxyphenyl)-1,3-thiazol-4-yl]phenyl}-1,1,1-trifluoromethanesulfonamide] was tested, and the cytotoxicity at 5 µM was 74%.

Work on `CN1CCN(c2cc(-c3nc(-c4ccc(NS(=O)(=O)C(F)(F)F)cc4Cl)cs3)ccn2)CC1` [Compound 76, N-(3-chloro-4-{2-[2-(4-methylpiperazin-1-yl)pyridin-4-yl]-1,3-thiazol-4-yl}phenyl)-1,1,1-trifluoromethanesulfonamide] yielded a cytotoxicity at 5 µM of 3%.

With `O=S(=O)(Nc1ccc(-c2csc(-c3ccnc(NS(=O)(=O)C(F)(F)F)c3)n2)c(Cl)c1)C(F)(F)F` [Compound 66, N-{3-chloro-4-[2-(2-trifluoromethanesulfonamidopyridin-4-yl)-1,3-thiazol-4-yl]phenyl}-1,1,1-trifluoromethanesulfonamide] the cytotoxicity at 20 µM was 11%.

In the case of `CCCc1cc(-c2nc(-c3ccc(NS(=O)(=O)C(F)(F)F)c(OC)c3)cs2)ccn1` [Compound 58, 1,1,1-trifluoro-N-{2-methoxy-4-[2-(2-propylpyridin-4-yl)-1,3-thiazol-4-yl]phenyl}methanesulfonamide], the cytotoxicity at 20 µM is reported as 67.9%.

`O=S(=O)(Nc1ccc(-c2csc(-c3ccnc(Cc4ccccc4)c3)n2)c(Cl)c1)C(F)(F)F` [Compound 60, N-{4-[2-(2-benzylpyridin-4-yl)-1,3-thiazol-4-yl]-3-chlorophenyl}-1,1,1-trifluoromethanesulfonamide] showed a cytotoxicity at 20 µM of 100%.

In the case of `O=S(=O)(Nc1ccc(-c2csc(-c3ccnc4ccccc34)n2)c(Cl)c1)C(F)(F)F` [Compound 94, N-[3-chloro-4-[2-(4-quinolyl)thiazol-4-yl]phenyl]-1,1,1-trifluoro-methanesulfonamide], the cytotoxicity at 5 µM is reported as 84%.

`Cc1noc(C)c1-c1nc(-c2ccc(NS(=O)(=O)C(F)(F)F)cc2Cl)cs1` [Compound 77, N-{3-chloro-4-[2-(dimethyl-1,2-oxazol-4-yl)-1,3-thiazol-4-yl]phenyl}-1,1,1-trifluoromethanesulfonamide] gave a cytotoxicity at 5 µM of 41%.

With `O=S(=O)(Nc1ccc(-c2csc(-c3cccc4[nH]ccc34)n2)c(Cl)c1)C(F)(F)F` [Compound 80, N-{3-chloro-4-[2-(1H-indol-4-yl)-1,3-thiazol-4-yl]phenyl}-1,1,1-trifluoromethanesulfonamide] the cytotoxicity at 5 µM was 86%.

`O=S(=O)(Nc1ccc(-c2csc(-c3csc4ccccc34)n2)c(Cl)c1)C(F)(F)F` [Compound 90, N-{4-[2-(1-benzothiophen-3-yl)-1,3-thiazol-4-yl]-3-chlorophenyl}-1,1,1-trifluoromethanesulfonamide] showed a cytotoxicity at 5 µM of 99%.

For `CCCc1cc(-c2nc(-c3cccc(NS(=O)(=O)C(F)(F)F)c3)cs2)ccn1` [Compound 2, 1,1,1-trifluoro-N-(3-(2-(2-propylpyridin-4-yl)thiazol-4-yl)phenyl)methanesulfonamide], the cytotoxicity at 20 µM was 80.5%.

Molecule `O=S(=O)(Nc1ccc(-c2csc(-c3ccc(F)cc3CN3CCCC3)n2)c(Cl)c1)C(F)(F)F` [Compound 91, N-(3-chloro-4-{2-[4-fluoro-2-(pyrrolidin-1-ylmethyl)phenyl]-1,3-thiazol-4-yl}phenyl)-1,1,1-trifluoromethanesulfonamide] has a cytotoxicity at 5 µM of 4%.

With `Nc1cc(-c2nc(-c3ccc(NS(=O)(=O)C(F)(F)F)cc3Cl)cs2)ccn1` [Compound 61, N-{4-[2-(2-aminopyridin-4-yl)-1,3-thiazol-4-yl]-3-chlorophenyl}-1,1,1-trifluoromethanesulfonamide] the cytotoxicity at 20 µM was 43%.

`O=S(=O)(Nc1ccc(-c2csc(-c3ccc(F)cc3C(F)(F)F)n2)c(Cl)c1)C(F)(F)F` [Compound 81, N-[3-chloro-4-[2-[4-fluoro-2-(trifluoromethyl)phenyl]thiazol-4-yl]phenyl]-1,1,1-trifluoro-methanesulfonamide] gave a cytotoxicity at 5 µM of 88%.
